Measured values from article PMC8465649, “Semaphorin 3A—Glycosaminoglycans Interaction as Therapeutic Target for Axonal Regeneration” (Pharmaceuticals, 2021).

Experiments:
[1] = NMR competition (WaterLOGSY / spin-lock filtered 1H): displacement of FS2/FS3 peptides from heparin agarose resin; type: binding; conditions: WaterLOGSY; 1:1 peptoid/FS2, both 1 mM; pH 7.5
Procedure: NMR competition experiments involved the acquisition of 1D-^1H WaterLOGSY or spin-lock filtered NMR spectra. Thus, FS2 peptide is displaced from heparin agarose resin by CSIC02 (1:1 peptoid/FS2, both 1 mM), but not by CSIC03 (Figure S15). […] We reasoned that if CSIC02 was able to interact with GAG and displace FS2/FS3 basic peptides, it may also interfere with SCTWT–heparin interaction. To investigate if CSIC02 could displace SCTWT from heparin dp14 and to define the SCTWT residues affected, 2D NMR ^1H-^15N HSQC CSP experiments were used. Figure 8a illustrates the chemical shift effects of CSIC02 addition to a sample of SCTWT containing dp14 heparin. […] In Figure 8b, we display the chemical shift perturbation of SCTWT NMR spectra in the presence of dp14 and CSIC02. Thus, as the two CSP plots in Figure 4b and Figure 8b were calculated using as reference SCTWT alone in solution, we can compare them directly. […] Moreover, splitting of signals for some residues (R733, R734, and Q735 in the first GAG-binding region) was observed (Figure 8c). This observation is compatible with the presence of different species in slow chemical exchange in solution, with partial detachment of SCTWT from heparin. The amount of CSIC02 used in these experiments can be rationalized considering that the SCTWT has ca. 12 positive charges at neutral pH (Figure S18), while CSIC02 is tricationic. Since the binding is mediated by ionic polar interactions, a large excess of CSIC02 is needed to counterbalance the SCTWT-dp14 binding.
Next, 1D ^1H T1ρ relaxation filtered and WaterLOGSY NMR experiments were acquired at 25 °C on a 500-MHz spectrometer (Varian Inova; Agilent Technologies, Santa Clara, CA, USA) equipped with an AutoX inverse double-resonance probe with a z-shielded pulsed-field gradient coil. The samples were prepared in a 5-mm Wilmad NMR 528-PP tubes with 10 mM Tris-d11 (for peptide/GAG samples) and 150 mM NaCl dissolved in 90% H2O/10% D2O at pH 7.5. All spectra were obtained with a sweep width of 8 kHz and 16,384 acquired data points. The experiments were recorded using the standard pulse sequence in the (WLOGSY_ES) Chempack library, with excitation sculpting to suppress water resonances. For Water-LOGSY experiments, the first water-selective 180° pulse was 25 ms long. The spectra were acquired with 1200 transients and a spin-lock pulse of 50 ms at 3.7 kHz. To phase Water-LOGSY spectra correctly, it is necessary to use an internal reference compound. In our case, the reference is the residual ethanol absorbed/bonded in heparin-agarose resin (this interaction was previously confirmed with T1ρ filtered experiments), which appears as a positively phased signal. […]

[2] = WaterLOGSY NMR direct binding to heparin agarose; conditions: 1D 1H WaterLOGSY
Procedure: Figure 6 (a) Chemical structures of triprotonated SICHI and CSIC02–04, as the main species in aqueous medium at neutral pH, and relative increase in MB absorbance at 665 nm versus charge ratio after the addition of the peptoids to the preformed MB/heparin complex (4.71 µM Hep repeating units + 9.83 µM MB in 5 mM Tris buffer at pH = 7.5). (b) 1D ^1H WaterLOGSY NMR experiments showing that CSIC02 binds to heparin agarose resin (used as a GAG mimetic).
As a simple way to characterize the GAG binding behavior, we applied the method previously described by Jiao et al., using the cationic dye known as methylene blue (MB) in a colorimetric competition assay. […] Next, we assessed the integrity and solubility of CSIC02 by NMR. […] Direct binding of CSIC02 to GAGs was qualitatively assessed by specific NMR experiments.
Next, 1D ^1H T1ρ relaxation filtered and WaterLOGSY NMR experiments were acquired at 25 °C on a 500-MHz spectrometer (Varian Inova; Agilent Technologies, Santa Clara, CA, USA) equipped with an AutoX inverse double-resonance probe with a z-shielded pulsed-field gradient coil. […] The experiments were recorded using the standard pulse sequence in the (WLOGSY_ES) Chempack library, with excitation sculpting to suppress water resonances. […]

CCN(CC)CCN(CC(=O)N(CCN1CCCC1)CC(=O)N(CCC1CCCN1C)CC(N)=O)C(=O)OCc1ccccc1 (centres unmarked) [CSIC02]
displacement of FS2 peptide from heparin agarose resin [1]: displaced | binding to heparin agarose (qualitative) [2]: binding
